Measurements from patent publication US10222370B2, “Screening assay for choice of prebiotic to prevent/treat gastrointestinal and systemic diseases” (Rush University Medical Center, priority 2014, dated 2019).

Columns and labels:
Type in all cases: cell-based, human
[1] = test system: T84 monolayers co-cultured with CD3/28-activated PBMC; test: T84/PBMC co-culture, paracellular permeability to 4 kDa FITC-dextran; conditions: PBMC from healthy controls; 48 h co-culture; vs medium control
Protocol: (§1) The T84 cells are grown in DMEM/F-12 (1:1) supplemented with GlutaMAX®, 10% fetal bovine serum and […] penicillin/streptomycin. (T84 cells (human colorectal carcinoma cell line, ATCC® CCL-248™, Manassas, Va., USA). T84 cells were seeded in 12-well transwell insert filters (Coming Inc., NY, USA) and cultured in T84 cell medium for 3-4 weeks till co-culture with PBMC. Transepithelial electrical resistance (TER) was measured during culture, which generally increases to >1500 Ω×cm^2 and becomes stable after 3-4 weeks of culture. When TER was ≥2000 Ω×cm^2, T84 monolayers 14 were co-cultured with 1.5×10^6 PBMC 16 in the basolateral chamber.
(§2) The PBMC 16 for use in the co-cultures are isolated from 20 mL fresh blood from healthy controls (n=6) and subjects with food allergy (n=8) (Table 1). The average age of healthy controls was 36 (range 24-54) vs. 51 (range 26-74) for food allergic subjects (P>0.05). PBMC were isolated by density gradient centrifugation using lymphocyte separation medium according to manufacturer's protocol (Cellgro, Mediatec, Inc., Manassas, Va., USA). PBMC were collected in RPMI1640 supplemented with L-glutamine (Gibco), 2.5% fetal bovine serum, 1% penicillin/streptomycin and 1% sodium pyruvate (Sigma, St. Louis, Mo., USA) (PBMC medium) at 1×10^6 cell/mL.
T84/PBMC co-cultures were maintained in PBMC medium. […]
The barrier integrity of T84 monolayers was assessed by measuring the TER and paracellular permeability to 4 kDa FITC-dextran. In short, TER was measured using a dual electrode system designed for cell culture insert analysis (EVOM; World Precision Instruments, Sarasota, Fla.) prior to co-culture and at indicated time points during co-culture. Data is reported as percentage of the initial TER value measured before co-culture. […] FITC-dextran was measured at excitation wavelength 485 nm and emission wavelength 520 nm. The 4 kDa FITC-dextran flux was expressed as pmol/(h×cm^2).

[2] = test system: PBMC; test: Cytokine production by CD3/28-activated PBMC in absence of T84 cells (ELISA); conditions: for IFN-γ / IL-6 / IL-8 / IL-10 / IL-13 / TNF-α: PBMC in absence of T84 cells, 24 h, mean ± SEM; for IL-10/IL-13 ratio: absence of T84 cells
Protocol: as §2
(§3) T84/PBMC co-cultures were maintained in PBMC medium. PBMC were stimulated using CD3 and CD28 antibodies (clone OKT3 and CD28.2, 0.2 μg/mL; eBioscience, San Diego, Calif., USA) and simultaneously IEC were stimulated apically with Pam3CSK4, LPS or type C CpG oligonucleotide M362 (Invivogen, San Diego, Calif., USA) as previously described. Cultures were maintained at 37° C./5% CO2 for indicated time points.
(§4) Cytokine levels were measured by ELISA. IL-6, IL-8, IL-10, IL-13, IFN-γ and TNF-α were measured using the Ready-Set-Go!® ELISA kit from eBioscience according to manufacturer's protocol (eBioscience, Inc., San Diego, Calif., USA).
(§5) To evaluate whether epithelial TLR ligation modulates cytokine production by the PBMC, basolateral supernatants were collected 24 h after co-culture. Exposure of CD3/28-activated PBMC in the absence of IEC to TLR ligands served as a control to evaluate the contribution of IEC in modulating the cytokine production by PBMC. First we evaluated the production of IFN-γ and IL-13 as a reflection of a Th1 and Th2 type effector response (Table 3). No significant changes in the production of IFN-γ or IL-13 were observed, though IFN-γ production by the PBMC from food allergic subjects tended to be lower in T84/PBMC co-cultures (P=0.093). […] This was not observed when PBMC were stimulated with CpG DNA in absence of T84 cells (FIG. 7B).

[3] = test system: T84 monolayers co-cultured with CD3/28-activated PBMC; test: T84/PBMC co-culture, barrier integrity by transepithelial electrical resistance (TER); conditions: apical exposure, 24 h and 48 h, vs medium control
Protocol: as §1, §2, §3
The barrier integrity of T84 monolayers was assessed by measuring the TER and paracellular permeability to 4 kDa FITC-dextran. In short, TER was measured using a dual electrode system designed for cell culture insert analysis (EVOM; World Precision Instruments, Sarasota, Fla.) prior to co-culture and at indicated time points during co-culture. Data is reported as percentage of the initial TER value measured before co-culture. For assessment of permeability, T84 monolayers were separated from PBMC and cultured in PBMC medium for 1 h. The monolayers were then apically exposed to 1 mg/mL 4 kDa FITC-dextran (Sigma) and basolateral supernatants were collected after 60 min. FITC-dextran was measured at excitation wavelength 485 nm and emission wavelength 520 nm. The 4 kDa FITC-dextran flux was expressed as pmol/(h×cm^2).
In some experiments, PBMC are stimulated using antibodies against CD3 and CD28 and T84 cell monolayers were simultaneously exposed to synthetic TLR ligands or fermentation product 12 (co-culture of stool samples without or with different prebiotics). SCFA content (acetate, propionate and butyrate) in the fermentation products (“Fermenta”) 12 was analyzed by HPLC. TER was measured at t=0 h, t=4 h, t=18 h and t=24 h to monitor changes in the barrier integrity of the T84 monolayers. Non-limiting example of prebiotics include commercially available inulin and fructose oligosaccharides (FOS) that promote production of Butyrate by intestinal bacteria, galactose oligosaccharides (GOS) that promote growth of bifidobacteria in the intestine or prebiotics like resistant starch, corn arbionoxylan that promotes propionate. Other prebiotics may also be used.

[4] = test system: T84/PBMC co-cultures; test: Cytokine production in T84/PBMC co-cultures with apical TLR ligands (ELISA); conditions: T84/PBMC, 24 h, mean ± SEM
Protocol: as §1, §2, §3, §4, §5

[5] = PBMC from food allergic subjects

Substance | permeability of T84 monolayers to 4 kDa FITC-dextran [1] | IFN-γ ([2]; FA) | IL-6 ([2]; FA) | IL-8 ([2]; FA) | IL-10 ([2]; FA) | IL-13 ([2]; FA) | TNF-α ([2]; FA) | IFN-γ ([2]; HC) | IL-6 ([2]; HC) | IL-8 ([2]; HC) | IL-10 ([2]; HC) | IL-13 ([2]; HC) | TNF-α ([2]; HC) | TER of T84 monolayers [3, 5] | TER of T84 monolayers ([3]; PBMC from healthy controls) | IL-6 ([4]; FA (food allergy) PBMC) | IFN-γ ([4]; FA PBMC) | IL-8 ([4]; FA PBMC) | IL-10 ([4]; FA PBMC) | IL-13 ([4]; FA PBMC) | further results
LPS | increased the permeability | 2188 ± 908 pg/mL | 9909 ± 2073 pg/mL | 35682 ± 4770 pg/mL | 586 ± 159.4 pg/mL | 34.0 ± 10.7 pg/mL | 945.4 ± 294 pg/mL | 6070 ± 2282 pg/mL | 12399 ± 2174 pg/mL | 43034 ± 2960 pg/mL | 545.4 ± 134.7 pg/mL | 28.3 ± 8.7 pg/mL | 2607 ± 1165 pg/mL | did not affect | did not affect | 7410 ± 2112 pg/mL | 4390 ± 1700 pg/mL | 17103 ± 4334 pg/mL | 777.6 ± 163.2 pg/mL | 33.8 ± 11.0 pg/mL | IL-10/IL-13 ratio [2, 5]: increased; IL-10/IL-13 ratio ([2]; PBMC from healthy controls): enhanced; TNF-α ([4]; FA PBMC): 2403 ± 516 pg/mL; IL-6 ([4]; HC (healthy control) PBMC): 9040 ± 2424 pg/mL; IFN-γ ([4]; HC PBMC): 10392 ± 2967 pg/mL; IL-8 ([4]; HC PBMC): 23124 ± 5683 pg/mL; IL-10 ([4]; HC PBMC): 632.7 ± 125.1 pg/mL; IL-13 ([4]; HC PBMC): 31.3 ± 9.1 pg/mL; TNF-α ([4]; HC PBMC): 2928 ± 712 pg/mL
Pam3CSK4 | increased the permeability | 2824 ± 1163 pg/mL | 8073 ± 2055 pg/mL | 32940 ± 4869 pg/mL | 422.8 ± 98.6 pg/mL | 59.4 ± 15.2 pg/mL | 979.1 ± 244^ pg/mL | 5663 ± 1768 pg/mL | 9472 ± 2153 pg/mL | 43737 ± 2856 pg/mL | 254.7 ± 135.4 pg/mL | 59.2 ± 17.0 pg/mL | 2206 ± 1155 pg/mL | did not affect | did not affect | 5968 ± 1324 pg/mL | 6533 ± 2125 pg/mL | 16854 ± 4954 pg/mL | 853.3 ± 212.9 pg/mL | 40.8 ± 12.1 pg/mL | TNF-α ([4]; FA PBMC): 2251 ± 534 pg/mL; IL-6 ([4]; HC (healthy control) PBMC): 7209 ± 1531 pg/mL; IFN-γ ([4]; HC PBMC): 8614 ± 2455 pg/mL; IL-8 ([4]; HC PBMC): 23052 ± 5527 pg/mL; IL-10 ([4]; HC PBMC): 581.1 ± 110.7 pg/mL; IL-13 ([4]; HC PBMC): 37.8 ± 9.2 pg/mL; TNF-α ([4]; HC PBMC): 3073 ± 509 pg/mL
